This experiment has as its system CD8+ and CD4+ T cells (autologous CD3+ Pan-T cells isolated from human normal PBMCs). Kind of experiment: Exogenous autologous normal donor restimulation assay (15-mer overlapping peptide pools on CD1c+ dendritic cells, TNFα/IFNγ flow cytometry). It counts as cell-based. Particulars: 15-mer overlapping peptide pool; for Maximum Fold Change Over Background CD4+ cells / Maximum Fold Change Over Background CD8+ cells / Maximum Frequency of TNFα/IFNγ Double Positive CD4+ T cells / Maximum Frequency of TNFα/IFNγ Double Positive CD8+ T cells: Table 25; for Maximum Fold Change Over Background CD4+ cells: TNFα+IFNγ+ CD4+ T cells; for Maximum Fold Change Over Background CD4+ cells / Maximum Fold Change Over Background CD8+ cells: highest fold change over negative control across normal donors; for Maximum Fold Change Over Background CD8+ cells: TNFα+IFNγ+ CD8+ T cells; for Maximum Frequency of TNFα/IFNγ Double Positive CD4+ T cells / Maximum Frequency of TNFα/IFNγ Double Positive CD8+ T cells: highest frequency across normal donors. The gist of the method:
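Readout was intracellular TNFα/IFNγ flow cytometry on live CD3+ CD8+ and CD4+ cells after day-11 peptide restimulation. Stimulators were CD1c+ dendritic cells loaded with overlapping 15-mer peptide pools (2.5–10 μg/mL), irradiated, and cultured 12 days with autologous normal-donor Pan-T cells plus IL-15/IL-2. A response counted when ≥3-fold over DMSO control and at least 0.01%.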
For orientation: In flow cytometry, cells or beads pass a laser one at a time.

[1] abbreviates: Table 28, additional neoantigens, highest across normal donors.

“YEAGMTLGEKFRVGNCKHLKMTRP (listed as Homo sapiens) [Neoantigen P82]”: the “Maximum Fold Change Over Background CD4+ cells” value was determined as 4.44, the “Maximum Fold Change Over Background CD8+ cells” value is reported as 2.92, the “Maximum Frequency of TNFα/IFNγ Double Positive CD4+ T cells” value turned out to be 0.17 and the “Maximum Frequency of TNFα/IFNγ Double Positive CD8+ T cells” value was 0.09.

As for “SLYHREKQLIAMDSAI (listed as Homo sapiens) [Neoantigen P22]”, the “Maximum Fold Change Over Background CD4+ cells” value stood at 18.16, the “Maximum Fold Change Over Background CD8+ cells” value was determined as 1.56, the “Maximum Frequency of TNFα/IFNγ Double Positive CD4+ T cells” value worked out at 0.075 and the “Maximum Frequency of TNFα/IFNγ Double Positive CD8+ T cells” value is 0.025.

For the molecule “YEAGMTLGGKILFFLFLLLPLSPFSLIF (listed as Homo sapiens) [Neoantigen P87]”, the “Maximum Fold Change Over Background CD4+ cells” value amounted to 7.86, the “Maximum Fold Change Over Background CD8+ cells” value turned out to be 9.20, the “Maximum Frequency of TNFα/IFNγ Double Positive CD4+ T cells” value came to 0.110 and the “Maximum Frequency of TNFα/IFNγ Double Positive CD8+ T cells” value was determined as 0.460.

B1: P19 (peptide, listed as Homo sapiens)
chain: WTPIPVLTRWPLPHPPPWRRATSCRMARSSPSATSGSSVRRRCSSLPSWVWNLAASTRPRSTPS
Take B1: under setting [1], the “Max. Fold Change over background CD4+ TNFαINFγ double positive DP” value turned out to be 6.67, the “Max. Fold Change over background CD8+ TNFαINFγ double positive DP” value was 4.76, the “Max. Frequency of CD4+ TNFαINFγ DP” value is given as 0.16 and the “Max. Frequency of CD8+ TNFαINFγ DP” value came to 0.15.
